Assay results published in US6737383B1, “Herbicidal oxadiazolidines” (priority 1999, dated 2004).

Assays:
bedstraw = test: Test B pre/postemergence bedstraw; format: in vivo, Galium aparine; conditions: Postemergence
In short: (§1)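 Test chemicals in a non-phytotoxic solvent mixture with surfactant were sprayed preemergence onto planted seeds and postemergence onto plants 2 to 18 cm tall (1- to 4-leaf stage). After twelve to sixteen days in a greenhouse, injury was visually rated against untreated controls from 0 (no effect) to 10 (complete control).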

blackgrass = test: Test B pre/postemergence blackgrass; format: in vivo, Alopecurus myosuroides
In short: as §1

surinam grass = test: Test B pre/postemergence surinam grass; format: in vivo, Brachiaria decumbens
In short: as §1

cocklebur = test: Test B pre/postemergence cocklebur; format: in vivo, Xanthium strumarium
In short: as §1

corn = test: Test B pre/postemergence corn; format: in vivo, Zea mays
In short: as §1

crabgrass = test: Test B pre/postemergence crabgrass; format: in vivo, Digitaria sanguinalis
In short: as §1

giant foxtail = test: Test B pre/postemergence giant foxtail; format: in vivo, Setaria faberii
In short: as §1

morningglory = test: Test B pre/postemergence morningglory; format: in vivo, Ipomoea hederacea
In short: as §1

pigweed = test: Test B pre/postemergence pigweed; format: in vivo, Amaranthus retroflexus
In short: as §1

rape = test: Test B pre/postemergence rape; format: in vivo, Brassica napus
In short: as §1

soybean = test: Test B pre/postemergence soybean; format: in vivo, Glycine max
In short: as §1

sugar beet = test: Test B pre/postemergence sugar beet; format: in vivo, Beta vulgaris
In short: as §1

velvetleaf = test: Test B pre/postemergence velvetleaf; format: in vivo, Abutilon theophrasti
In short: as §1

wheat = test: Test B pre/postemergence wheat; format: in vivo, Triticum aestivum
In short: as §1

wild oat = test: Test B pre/postemergence wild oat; format: in vivo, Avena fatua
In short: as §1

purple nutsedge = test: Test B pre/postemergence purple nutsedge; format: in vivo, Cyperus rotundus
In short: as §1

rice = test: Test B flood test rice; format: in vivo, Oryza sativa
In short: (§2)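 Flood test on plants grown to the 2-leaf stage; treated plants kept in greenhouse twelve to sixteen days, then visually rated against controls on a 0 (no effect) to 10 (complete control) scale.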

smallflower flatsedge = test: Test B flood test smallflower flatsedge; format: in vivo, Cyperus difformis
In short: as §2

duck salad = test: Test B flood test duck salad; format: in vivo, Heteranthera limosa
In short: as §2

bamyardgrass = test: Test B flood test barnyardgrass; format: in vivo, Echinochloa crus-galli
In short: as §2

[1] = Postemergence, Rate 62 g/ha, scale 0 to 10, 0 is no effect, 10 is complete control
[2] = Postemergence, Rate 125 g/ha, scale of 0 to 10 where 0 is no effect and 10 is complete control
[3] = Postemergence, Rate 250 g/ha, scale of 0 to 10, 0 is no effect, 10 is complete control
[4] = Postemergence, Rate 500 g/ha, scale of 0 to 10 where 0 is no effect and 10 is complete control
[5] = Preemergence, Rate 62 g/ha, scale 0 to 10 (0 no effect, 10 complete control)
[6] = Preemergence, Rate 125 g/ha, scale of 0 to 10 where 0 is no effect and 10 is complete control
[7] = Preemergence, Rate 500 g/ha, scale of 0 to 10 where 0 is no effect and 10 is complete control
[8] = Rate 62 g/ha, flood test species, Pre-emergence, visual evaluation after twelve to sixteen days
[9] = Rate 125 g/ha, under heading Pre-emergence, flood test species, visual evaluation after twelve to sixteen days
[10] = Rate 250 g/ha, Pre-emergence (flood test species), scale 0 to 10, 0 is no effect, 10 is complete control
[11] = Rate 500 g/ha, Pre-emergence section of Table B, 0 to 10 scale (0 no effect, 10 complete control)

With `C=C(C)Cn1c(=O)on(C(=O)N(c2ccccc2)C(C)C)c1=O` [Compound 607] the “Plant response rating, Bedstraw” value (bedstraw; Rate 62 g/ha, scale 0 to 10, 0 is no effect, 10 is complete control) was 0, the “Plant response rating, Bedstraw” value (bedstraw; Rate 125 g/ha, scale of 0 to 10 where 0 is no effect and 10 is complete control) was 0 and the “Plant response rating, Blackgrass” value (blackgrass; [1]) was 0. The “Plant response rating, Blackgrass” value (blackgrass; [2]) was 4, the “Blackgrass plant response rating” value (blackgrass; [3]) was 6 and the “Plant response rating, Blackgrass” value (blackgrass; [4]) was 7. For the same compound, the “Blackgrass plant response rating” value (blackgrass; [5]) was 4, the “Blackgrass plant response rating” value (blackgrass; [6]) was 7 and the “Blackgrass plant response rating (0 to 10 scale)” value (blackgrass; Preemergence, Rate 250 g/ha) was 8. The “Blackgrass plant response rating” value (blackgrass; [7]) was 9, the “Plant response rating, B. signalgrass” value (surinam grass; [1]) was 0 and the “Plant response rating, B. signalgrass” value (surinam grass; [2]) was 0. For the same compound, the “B. signalgrass plant response rating” value (surinam grass; [3]) was 4, the “Plant response rating, B. signalgrass” value (surinam grass; [4]) was 7 and the “B. signalgrass plant response rating” value (surinam grass; [5]) was 4. For the same compound, the “B. signalgrass plant response rating” value (surinam grass; [6]) was 7, the “B. signalgrass plant response rating (0 to 10 scale, 0 is no effect, 10 is complete control)” value (surinam grass; Preemergence, Rate 250 g/ha) was 8 and the “B. signalgrass plant response rating” value (surinam grass; [7]) was 8. For the same compound, the “Plant response rating, Cocklebur” value (cocklebur; [1]) was 0, the “Plant response rating, Cocklebur” value (cocklebur; [2]) was 0 and the “Cocklebur plant response rating” value (cocklebur; [3]) was 0. The “Plant response rating, Cocklebur” value (cocklebur; [4]) was 0, the “Cocklebur plant response rating” value (cocklebur; [5]) was 0 and the “Cocklebur plant response rating” value (cocklebur; [6]) was 0. The “Cocklebur plant response rating (0 to 10 scale)” value (cocklebur; Preemergence, Rate 250 g/ha) was 0, the “Plant response rating, Cocklebur” value (cocklebur; [7]) was 0 and the “Plant response rating, Corn” value (corn; [1]) was 0. The “Plant response rating, Corn” value (corn; [2]) was 0, the “Corn plant response rating” value (corn; [3]) was 0 and the “Plant response rating, Corn” value (corn; [4]) was 2. The “Corn plant response rating” value (corn; [5]) was 0, the “Corn plant response rating” value (corn; [6]) was 0 and the “Corn plant response rating (0 to 10 scale)” value (corn; Preemergence, Rate 250 g/ha) was 0. For the same compound, the “Plant response rating, Corn” value (corn; [7]) was 6, the “Plant response rating, Crabgrass” value (crabgrass; [1]) was 5 and the “Crabgrass plant response rating” value (crabgrass; [3]) was 8. For the same compound, the “Plant response rating, Crabgrass” value (crabgrass; [4]) was 9, the “Crabgrass plant response rating” value (crabgrass; [5]) was 7 and the “Crabgrass plant response rating” value (crabgrass; [6]) was 8. For the same compound, the “Plant response rating, Crabgrass” value (crabgrass; [7]) was 9, the “Plant response rating, Giant foxtail” value (giant foxtail; [1]) was 6 and the “Plant response rating, Giant foxtail” value (giant foxtail; [2]) was 6. For the same compound, the “Giant foxtail plant response rating” value (giant foxtail; [3]) was 7, the “Plant response rating, Giant foxtail” value (giant foxtail; [4]) was 9 and the “Giant foxtail plant response rating” value (giant foxtail; [5]) was 9. For the same compound, the “Giant foxtail plant response rating” value (giant foxtail; [6]) was 10, the “Plant response rating, Giant foxtail” value (giant foxtail; [7]) was 10 and the “Plant response rating, Morningglory” value (morningglory; [1]) was 6. The “Plant response rating, Morningglory” value (morningglory; [2]) was 8, the “Morningglory plant response rating” value (morningglory; [3]) was 8 and the “Plant response rating, Morningglory” value (morningglory; [4]) was 10. The “Morningglory plant response rating” value (morningglory; [5]) was 0, the “Morningglory plant response rating” value (morningglory; [6]) was 0 and the “Plant response rating, Morningglory” value (morningglory; [7]) was 0. For the same compound, the “Plant response rating, Redroot pigweed” value (pigweed; [1]) was 0, the “Plant response rating, Redroot pigweed” value (pigweed; [2]) was 0 and the “Redroot pigweed plant response rating” value (pigweed; [3]) was 0. For the same compound, the “Plant response rating, Redroot pigweed” value (pigweed; [4]) was 5, the “Redroot pigweed plant response rating” value (pigweed; [5]) was 4 and the “Redroot pigweed plant response rating” value (pigweed; [6]) was 7. For the same compound, the “Plant response rating, Redroot pigweed” value (pigweed; [7]) was 10, the “Plant response rating, Rape” value (rape; [1]) was 0 and the “Plant response rating, Rape” value (rape; [2]) was 0. The “Rape plant response rating” value (rape; [3]) was 0, the “Plant response rating, Rape” value (rape; [4]) was 0 and the “Rape plant response rating” value (rape; [5]) was 0. The “Rape plant response rating” value (rape; [6]) was 6, the “Plant response rating, Rape” value (rape; [7]) was 7 and the “Plant response rating, Soybean” value (soybean; [1]) was 3. For the same compound, the “Plant response rating, Soybean” value (soybean; [2]) was 4, the “Soybean plant response rating” value (soybean; [3]) was 6 and the “Soybean plant response rating” value (soybean; [5]) was 0. For the same compound, the “Soybean plant response rating” value (soybean; [6]) was 0, the “Plant response rating, Soybean” value (soybean; [7]) was 4 and the “Plant response rating, Sugarbeets” value (sugar beet; [1]) was 0. For the same compound, the “Plant response rating, Sugarbeets” value (sugar beet; [2]) was 0, the “Sugarbeets plant response rating” value (sugar beet; [3]) was 0 and the “Plant response rating, Sugarbeets” value (sugar beet; [4]) was 0. For the same compound, the “Sugarbeets plant response rating” value (sugar beet; [5]) was 0, the “Sugarbeets plant response rating” value (sugar beet; [6]) was 0 and the “Plant response rating, Sugarbeets” value (sugar beet; [7]) was 5. For the same compound, the “Plant response rating, Velvetleaf” value (velvetleaf; [1]) was 0, the “Plant response rating, Velvetleaf” value (velvetleaf; [2]) was 0 and the “Velvetleaf plant response rating” value (velvetleaf; [3]) was 3. For the same compound, the “Plant response rating, Velvetleaf” value (velvetleaf; [4]) was 5, the “Velvetleaf plant response rating” value (velvetleaf; [5]) was 0 and the “Velvetleaf plant response rating” value (velvetleaf; [6]) was 3. The “Plant response rating, Velvetleaf” value (velvetleaf; [7]) was 8, the “Plant response rating, Wheat” value (wheat; [1]) was 0 and the “Plant response rating, Wheat” value (wheat; [2]) was 0. The “Wheat plant response rating” value (wheat; [3]) was 2, the “Plant response rating, Wheat” value (wheat; [4]) was 4 and the “Wheat plant response rating” value (wheat; [5]) was 0. The “Wheat plant response rating” value (wheat; [6]) was 0, the “Plant response rating, Wheat” value (wheat; [7]) was 3 and the “Plant response rating, Wild oats” value (wild oat; [1]) was 0. For the same compound, the “Plant response rating, Wild oats” value (wild oat; [2]) was 0, the “Wild oats plant response rating” value (wild oat; [3]) was 0 and the “Plant response rating, Wild oats” value (wild oat; [4]) was 4. The “Wild oats plant response rating” value (wild oat; [5]) was 0, the “Wild oats plant response rating” value (wild oat; [6]) was 2 and the “Plant response rating, Wild oats” value (wild oat; [7]) was 6. The “Plant response rating, Nutsedge” value (purple nutsedge; [1]) was 0, the “Plant response rating, Nutsedge” value (purple nutsedge; [2]) was 0 and the “Nutsedge plant response rating” value (purple nutsedge; [3]) was 0. The “Plant response rating, Nutsedge” value (purple nutsedge; [4]) was 7, the “Nutsedge plant response rating” value (purple nutsedge; [6]) was 0 and the “Plant response rating, Nutsedge” value (purple nutsedge; [7]) was 0. The “Plant response rating, Rice (0 to 10 scale, 0 is no effect, 10 is complete control)” value (rice; [8]) was 0, the “Rice plant response rating (0 to 10 scale, 0 is no effect, 10 is complete control)” value (rice; [9]) was 0 and the “Rice plant response rating” value (rice; [10]) was 0. For the same compound, the “Rice plant response rating” value (rice; [11]) was 0, the “Plant response rating, S. Flatsedge (0 to 10 scale, 0 is no effect, 10 is complete control)” value (smallflower flatsedge; [8]) was 0 and the “S. Flatsedge plant response rating (0 to 10 scale, 0 is no effect, 10 is complete control)” value (smallflower flatsedge; [9]) was 0. The “S. Flatsedge plant response rating” value (smallflower flatsedge; [10]) was 0, the “S. Flatsedge plant response rating” value (smallflower flatsedge; [11]) was 0 and the “Plant response rating, Ducksalad (0 to 10 scale, 0 is no effect, 10 is complete control)” value (duck salad; [8]) was 0. The “Ducksalad plant response rating (0 to 10 scale, 0 is no effect, 10 is complete control)” value (duck salad; [9]) was 0, the “Ducksalad plant response rating” value (duck salad; [10]) was 0 and the “Ducksalad plant response rating” value (duck salad; [11]) was 0. For the same compound, the “Plant response rating, Barnyardgrass (0 to 10 scale, 0 is no effect, 10 is complete control)” value (bamyardgrass; [8]) was 0, the “Barnyardgrass plant response rating (0 to 10 scale, 0 is no effect, 10 is complete control)” value (bamyardgrass; [9]) was 0 and the “Barnyardgrass plant response rating” value (bamyardgrass; [10]) was 0. For the same compound, the “Barnyardgrass plant response rating” value (bamyardgrass; [11]) was 0.
